Test results reported in publication PMC5444469, “Involvement of three putative glucosyltransferases from the UGT72 family in flavonol glucoside/rhamnoside biosynthesis in Lotus japonicus seeds” (Journal of Experimental Botany, 2016).
Values belong to the molecule of their own block, whether it stands above or below them.

Tests used:
Conditions in all cases: 4 mM UDP-glucose, pH 7.5, 30 °C, 10 mM DTT
[1] = tested on: T1, UGT72AD1; experiment: HPLC glucosylation assay; format: biochemical, Lotus japonicus
T1 construct: full-length ORF cloned from leaf cDNA; MBP fusion (pMAL-c2x), E. coli Novablue, maltose-resin purified

[2] = substrate: O=c1c(O)c(-c2ccc(O)cc2)oc2cc(O)cc(O)c12; experiment: HPLC glucosylation assay; format: biochemical, Lotus japonicus
Text: (§1) HPLC glucosylation assay on UGT72Z2 | UGT72Z2 ...

[3] = substrate: O=c1c(O)c(-c2ccc(O)c(O)c2)oc2cc(O)cc(O)c12; experiment: HPLC glucosylation assay; format: biochemical, Lotus japonicus
Text: as §1

[4] = substrate: O=c1c(O)c(-c2cc(O)c(O)c(O)c2)oc2cc(O)cc(O)c12; experiment: purified protein

Molecule: O=c1c(O)c(-c2ccc(O)c(O)c2)oc2cc(O)cc(O)c12 [quercetin]
Km [1]: 310 µM

B1: UGT72Z2 (Lotus japonicus) (protein)
chain: MAKTIHIAAVSIPAFSHQASIIEFCKKLLHLHHHYHVTCIFPTIDAPVAATLKLLQSLPSTIDFKFLPPVNKQDLPQDVSPAVQIQLAVSQSMPSFRDTMRSLHSTTPHLTALIADPFANEALEIGKEFNLLSYIYFPPSAMTLSLFLHLPKLHEEVSCEYRDLTEPIQIPGCIPIQGQDLPEHFQDRSSLAYDLILKRCKRFSLADGFLVNSFLELEEGTVKALQEQNRGNRGENRGNRGKNRGNRDSPVFLVGPVIQTGPSSEPKGSESEYCVRWLENQIPKSVLYVSFGSGGTLSQEQMNELAFGLELSGQKFLWVVRAPSDSANAAYLGVGNEDPLKFLPSGFIERTKGQGLVIPSWAPQTQILSHSSIGGFLTHCGWNSVLESIVLGVPMITWPLFAEQRMNAVLLTDGVKVALRPKFDENGIVKREEIAVVVKGLMQGEEGNGIHHRIEVLKEAAADALKEDGSSTRALSQFGNQIENFLALK
notes: full-length ORF cloned from leaf cDNA; MBP fusion (pMAL-c2x), E. coli Novablue, maltose-resin purified
Km [2]: 40 µM
Km [3]: 68 µM
Km [4]: 46 µM

Results, then the molecule that gave them:

Km [1]: 330 µM
Molecule: O=c1c(O)c(-c2ccc(O)cc2)oc2cc(O)cc(O)c12 [kaempferol]

Km [1]: 390 µM
Molecule: O=c1c(O)c(-c2cc(O)c(O)c(O)c2)oc2cc(O)cc(O)c12 [myricetin]
